Patent US20250074908A1, “SALT OF ROCK INHIBITOR, CRYSTAL FORM OF SALT, COMPOSITION, AND PHARMACEUTICAL USE” (WUHAN CREATERNA SCIENCE AND TECHNOLOGY CO., LTD., priority 2022, published 2025)

Key:
[1] = Chemical stability on storage up to 3 months (HPLC purity), Table 13-4; type: physicochemical; conditions: for Purity (%), 230 nm, Month 1 / Purity (%), 230 nm, Month 3: sealed and protected from light
Procedure: B) The HPLC method used for the stability study was as follows:
The vials were sealed with tin foil and then separately placed under the conditions of 40° C. temperature/75% humidity or 25° C. temperature/60% humidity for about 3 months. The samples after being placed for 0 months, 2 weeks, 1 month and 3 months were taken and each dissolved in a diluent to prepare a solution at about 1.0 mg/mL, which was then tested for chemical stability by HPLC analysis using Shimadzu LC-20ADxr.

[2] = as above; type: physicochemical; conditions: 40° C./75% humidity, sealed and protected from light
[3] = molecular target: T1, ROCK2 kinase (Homo sapiens, UniProt O75116); assay: In-vitro evaluation of ROCK2 kinase activity (HTRF KinEASE-STK); type: biochemical
T1 construct: purchased Invitrogen PV3759
Procedure: ROCK2 activity screening: ROCK2 activity was detected using a 96-well (Cisbio) time-resolved fluorometric assay. The assay for ROCK2 was performed in the following assay buffer: 5 mM MgCl2 (Sigma), 1 mM DTT (Sigma), and 1× kinase buffer. The kinase buffer was used for dilution. 7.5 μL of ROCK2 kinase (Invitrogen, PV3759) was first added to a 96-well microplate to achieve a final concentration of 0.4 ng/μL, and then […] of compound I (DMSO content: 1% (volume fraction)) was added. The mixture was incubated at room temperature for 0.5 h. To start the reaction, the kinase buffer was used to mix ATP (Aladdin) and the substrate STK-substrate 2-biotin. 7.5 μL of the mixed solution was added to the microplate to achieve final concentrations of 6.739 μM and 1 μM. The resulting mixture was incubated at room temperature for another 2 h. 5 mL of detection buffer was mixed with STK antibody-Cryptate, and then an appropriate volume of the mixture was mixed with an equal volume of streptavidin-XL665. 10 μL of the resulting mixture was added to the microplate to stop the reaction. After further incubation for about 1 h, the microplate was read on a Molecular Devices Spectra Max i3x multifunctional microplate reader. […]

[4] = molecular target: T2, ROCK1 kinase (Homo sapiens, UniProt Q13464); assay: In-vitro evaluation of ROCK1 kinase selectivity (HTRF KinEASE-STK); type: biochemical
T2 construct: purchased Invitrogen
Procedure: ROCK1 activity was detected using a 96-well (Cisbio) time-resolved fluorometric assay. The assay for ROCK1 was performed in the following assay buffer: 5 mM MgCl2 (Sigma), 1 mM DTT (Sigma), and 1× kinase buffer. The kinase buffer was used for dilution. 7.5 μL of ROCK1 kinase (Invitrogen) was first added to a 96-well microplate to achieve a final concentration of 0.4 ng/μL, and then 0.25 μL of the compound (DMSO content: 1%) was added. The mixture was incubated at room temperature for 0.5 h. To start the reaction, the kinase buffer was also used to mix ATP (Aladdin) and the substrate STK-substrate 2-biotin. 7.5 μL of the mixed solution was added to the microplate to achieve final concentrations of 3.53 μM and 1 μM. The resulting mixture was incubated at room temperature for another 2 h. 5 mL of detection buffer was mixed with STK antibody-Cryptate, and then an appropriate volume of the mixture was mixed with an equal volume of streptavidin-XL665. 10 μL of the resulting mixture was added to stop the reaction. After further incubation for about 1 h, the microplate was read on a Molecular Devices SpectraMax i3x multifunctional microplate reader. The kinase buffer, the STK-substrate 2-biotin, the detection buffer, the STK antibody-Cryptate, and the streptavidin-XL665 were all from HTRF KinEASE-STK kit (Cisbio, 1000 tests, 61GSTXLA).

[5] = In-vitro cytotoxicity assay, CCK-8 method; type: cell-based; conditions: human, HepG2 cells
Procedure: In-vitro cytotoxicity assay for compound I was performed in HepG2 cells using the CCK-8 method. HepG2 cells (Beina Bio) in the logarithmic growth phase were collected, the concentration of cell suspension was adjusted, and then the cells were plated on a 96-well cell culture plate at 50000 cells/well. The cells were then incubated in a cell incubator (5%, 37° C.) overnight. After 80%-90% cell confluence in the plate was achieved, medium change was performed, and then the test compound at each concentration gradient or vehicle (DMSO) was added. The resulting mixture was incubated in the cell incubator (5%, 37° C.) for 48 h. After the treatment was completed, the medium in the plate was discarded. The plate was washed twice with PBS, and a CCK-8 working solution (Beyotime) was added at 100 μL per well. The resulting mixture was then incubated at 37° C. for 1.5 h in the dark. The absorbance at OD450 nm was measured for each well on a microplate reader, and the CC50 value of each compound was analyzed and calculated.

[6] = Pharmacokinetic study in rats; type: in vivo, SD rats; conditions: male, SD, rat, in vivo, po, 10 mg/kg
Procedure: Compound I, 2-hydroxyethanesulfonate of compound I, ethanesulfonate (crystal form I) of compound I, tartrate of compound I, and sulfate of compound I were each accurately weighed, and the required volume of vehicle was added. The mixture was stirred for 5 min, then sonicated below 25° C. until no large particles were visible to the naked eye, and further stirred for 30 min until a homogeneous suspension was obtained. The suspension was then used for administration.
Male SPF-grade SD rats (Beijing Vital River Laboratory Animal Technology Co., Ltd.) were given compound I, the 2-hydroxyethanesulfonate of compound I, the ethanesulfonate of compound I (crystal form I), the tartrate of compound I, and the sulfate of compound I by single intragastric administration after an acclimation period (with free access to water and food). Blood was collected from the orbital venous plexus of the rats at 0.167 h, 0.5 h, 1 h, 2 h, 3 h, 4 h, 6 h, 9 h, 12 h, and 24 h after administration. Each blood sample was centrifuged at 3500×g for 10 min at 4° C. The supernatant was then collected, and the concentration of compound I in the plasma was measured by LC-MS/MS (AB Sciex TRIPLE QUAD 3500). The data were analyzed using a non-compartmental model in WinNonlin (version 5.2.1 Pharsight, Mountain View, CA) to obtain PK parameters.

T2 sequence (Q13464 whole entry): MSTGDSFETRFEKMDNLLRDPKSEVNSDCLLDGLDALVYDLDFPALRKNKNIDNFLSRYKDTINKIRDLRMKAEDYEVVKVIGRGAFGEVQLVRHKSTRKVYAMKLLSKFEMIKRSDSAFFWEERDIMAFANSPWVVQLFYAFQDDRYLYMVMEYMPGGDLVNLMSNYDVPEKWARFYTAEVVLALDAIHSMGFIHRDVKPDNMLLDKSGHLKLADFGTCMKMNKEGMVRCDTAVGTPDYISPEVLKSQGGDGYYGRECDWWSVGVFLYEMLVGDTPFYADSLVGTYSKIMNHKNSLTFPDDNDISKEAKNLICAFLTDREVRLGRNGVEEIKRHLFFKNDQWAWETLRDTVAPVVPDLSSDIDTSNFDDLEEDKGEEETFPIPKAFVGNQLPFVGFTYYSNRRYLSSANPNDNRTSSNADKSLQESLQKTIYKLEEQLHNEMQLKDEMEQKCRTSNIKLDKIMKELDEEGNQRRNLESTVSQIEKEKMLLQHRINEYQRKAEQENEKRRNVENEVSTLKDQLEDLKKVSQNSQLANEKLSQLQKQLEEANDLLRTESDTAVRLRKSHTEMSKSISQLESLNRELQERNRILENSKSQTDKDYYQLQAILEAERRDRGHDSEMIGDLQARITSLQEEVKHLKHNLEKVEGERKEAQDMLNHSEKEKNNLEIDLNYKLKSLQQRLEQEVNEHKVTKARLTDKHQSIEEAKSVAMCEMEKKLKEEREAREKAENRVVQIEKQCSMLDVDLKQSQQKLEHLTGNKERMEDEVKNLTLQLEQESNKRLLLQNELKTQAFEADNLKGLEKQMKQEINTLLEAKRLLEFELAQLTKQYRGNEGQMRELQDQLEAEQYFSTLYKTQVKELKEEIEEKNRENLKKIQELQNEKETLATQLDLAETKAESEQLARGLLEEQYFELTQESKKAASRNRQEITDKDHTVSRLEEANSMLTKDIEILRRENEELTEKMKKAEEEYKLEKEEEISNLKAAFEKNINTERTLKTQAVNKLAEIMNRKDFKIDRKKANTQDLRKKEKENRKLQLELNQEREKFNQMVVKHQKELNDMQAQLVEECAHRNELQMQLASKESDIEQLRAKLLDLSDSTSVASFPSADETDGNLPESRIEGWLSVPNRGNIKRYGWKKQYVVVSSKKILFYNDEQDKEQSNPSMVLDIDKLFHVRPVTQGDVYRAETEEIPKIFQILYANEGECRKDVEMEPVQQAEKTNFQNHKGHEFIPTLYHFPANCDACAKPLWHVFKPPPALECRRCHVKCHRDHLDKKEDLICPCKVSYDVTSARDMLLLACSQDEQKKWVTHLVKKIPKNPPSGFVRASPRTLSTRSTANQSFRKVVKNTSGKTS
T1 sequence (O75116 whole entry): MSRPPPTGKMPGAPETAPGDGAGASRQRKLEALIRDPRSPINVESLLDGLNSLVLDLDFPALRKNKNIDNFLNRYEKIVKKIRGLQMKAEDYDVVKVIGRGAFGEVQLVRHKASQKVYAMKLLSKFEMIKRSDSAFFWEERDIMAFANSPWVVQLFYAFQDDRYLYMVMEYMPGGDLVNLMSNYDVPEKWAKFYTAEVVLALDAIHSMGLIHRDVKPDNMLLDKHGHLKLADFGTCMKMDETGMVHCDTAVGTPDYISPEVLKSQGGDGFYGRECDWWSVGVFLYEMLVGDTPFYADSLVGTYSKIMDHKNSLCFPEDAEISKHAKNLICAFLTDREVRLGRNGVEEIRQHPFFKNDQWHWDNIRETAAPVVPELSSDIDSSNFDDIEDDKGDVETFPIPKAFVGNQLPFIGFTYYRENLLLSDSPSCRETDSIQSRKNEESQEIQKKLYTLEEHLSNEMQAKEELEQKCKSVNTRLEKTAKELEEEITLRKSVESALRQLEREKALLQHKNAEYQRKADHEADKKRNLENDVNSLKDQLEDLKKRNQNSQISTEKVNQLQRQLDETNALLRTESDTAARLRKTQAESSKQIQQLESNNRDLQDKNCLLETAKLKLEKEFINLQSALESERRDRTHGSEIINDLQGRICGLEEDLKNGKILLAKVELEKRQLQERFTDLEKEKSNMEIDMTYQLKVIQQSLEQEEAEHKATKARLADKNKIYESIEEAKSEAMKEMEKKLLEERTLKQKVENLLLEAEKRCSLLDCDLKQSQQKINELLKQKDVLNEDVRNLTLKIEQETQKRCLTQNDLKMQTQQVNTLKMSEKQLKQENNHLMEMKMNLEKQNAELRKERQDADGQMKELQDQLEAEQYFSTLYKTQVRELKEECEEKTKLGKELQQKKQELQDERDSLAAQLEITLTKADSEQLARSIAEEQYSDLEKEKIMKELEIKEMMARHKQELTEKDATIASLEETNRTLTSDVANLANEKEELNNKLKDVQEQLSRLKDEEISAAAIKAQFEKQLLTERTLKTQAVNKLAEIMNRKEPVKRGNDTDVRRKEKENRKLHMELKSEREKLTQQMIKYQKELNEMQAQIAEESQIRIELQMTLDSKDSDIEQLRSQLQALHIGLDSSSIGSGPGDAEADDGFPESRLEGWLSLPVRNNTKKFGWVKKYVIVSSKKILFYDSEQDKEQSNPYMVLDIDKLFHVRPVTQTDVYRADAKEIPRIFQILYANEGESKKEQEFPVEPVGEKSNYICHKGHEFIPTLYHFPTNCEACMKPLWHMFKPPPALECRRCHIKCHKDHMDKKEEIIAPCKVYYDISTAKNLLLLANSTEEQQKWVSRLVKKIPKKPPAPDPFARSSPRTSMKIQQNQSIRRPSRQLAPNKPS

stability in chemical properties ([1]; 25° C./60% humidity and 40° C./75% humidity (sealed and protected from light)) | Purity (%), 230 nm, Month 1 ([1]; 25° C./60% humidity) | Purity (%), 230 nm, Month 3 ([1]; 25° C./60% humidity) | Purity (%), 230 nm, Month 1 ([1]; 40° C./75% humidity) | Purity (%), 230 nm, Month 3 ([1]; 40° C./75% humidity) | Purity (%), 230 nm, Day 0 ([1]; Day 0) | Purity (%), 230 nm, Month 2 [2] | IC50 [3] | IC50 [4] | AUC(0-t) [6] | Cmax [6] | SMILES | CC50 at 48 h [5]
substantially stable | 99.00% | 99.02% | 98.95% | 99.04% | 98.98% | 99.18% |  |  |  |  | Cn1c(C(=O)N2CC(F)(F)C2)cc2c1CN(c1ncc(F)c(Nc3ccc(-c4cn[nH]c4)cc3)n1)CC2.O=C(O)C(O)C(O)C(=O)O [Crystal form I of tartrate] | 
 |  |  |  |  |  |  | 36.5 nM | > 4500 nM | 2040 ng·h/mL | 251 ng/mL | Cn1c(C(=O)N2CC(F)(F)C2)cc2c1CN(c1ncc(F)c(Nc3ccc(-c4cn[nH]c4)cc3)n1)CC2 [Compound I, (6-(4-((4-(1H-pyrazol-4-yl)phenyl)amino)-5-fluoropyrimidin-2-yl)-1-methyl-4,5,6,7-tetrahydro-1H-pyrrolo[2,3-c]pyridin-2-yl)(3,3-difluoroazetidin-1-yl)methanone] | > 100000 nM
